Test results: US9289388B2, “Methods and compositions for delivery of medicaments to the lungs” (Paka Pulmonary Pharmaceuticals, Inc., priority 2008, dated 2016)

Assays:
[1] = test system: mice with HNE induced emphysema; test: HNE induced emphysema, intratracheal delivery, lung histology and mean linear intercept after four weeks; format: in vivo
Description: A total of 42 animals were used in this study. Anesthesized mice received 0.1 ml of solution delivered by intratracheal instillation as described above in Example 4. Animals were divided into the following treatment groups: four animals received saline only; ten animals received HNE only; four animals received the Zeneca inhibitor (target 2) only; eight animals received HNE mixed with the Zeneca inhibitor (target 2); eight animals received Zeneca inhibitor linked to a lung surfactant peptide (target C) only; and eight animals received HNE mixed with Zeneca inhibitor linked to a lung surfactant peptide (target C). Animals receiving HNE were instilled with 40 micrograms HNE. Target 2 (Zeneca inhibitor) was administered in a 70-fold molar excess relative to HNE and Target C (Zeneca inhibitor linked to a lung surfactant peptide) was administered in a 100 fold molar excess relative to HNE as described in Example 4.
All animals were observed a four week period prior to sacrifice following IRB approved protocols and the lungs from each animal were removed for sectioning. The Hilar and central region was sectioned from the left lung and the caudal region was sectioned from the right lung of each animal. Lung sections were scored using blind-scoring by an expert as “E” for emphysema and “N” for no emphysema.
The distance between adjacent alveolar walls was also measured to quantitate the degree of lung destruction for each treatment group. Lung sections obtained from each animal were analyzed under a microscope (which is connected to a computer) and lines were drawn over the lung sections between adjacent alveolar walls. The distance along the lines was calculated to determine the average distance or mean linear intercept (MLI) between adjacent alveolar walls. An increase in the average distance between adjacent alveolar walls corresponds to an increase in lung destruction.

mice exposed to HNE = test: Bronchoalveolar lavage of the lungs following HNE exposure (lung blood cell level); format: in vivo
Description: A total of 14 animals were used in this study. Anesthetized mice received 0.1 ml of solution delivered by a blunt tip catheter to the opening of the trachea and the animals allowed to aspirate the solution into their lungs (this method is also referred to as intratracheal instillation). All animals were exposed to the treatment for 2 hours and re-anesthetized. Bronchoalveolar lavage of the lungs was performed as described below. […] Target 2 (a potent HNE inhibitor developed by Zeneca in the early 1990s) when given with the HNE, reduced the average blood level in the lungs by 34% to 0.035 grams. Target C (the Zeneca molecule covalently attached to the N-terminus of the first 25 residues of the human surfactant B peptide) when given with the HNE reduced the average blood level in the lungs by 87% to 0.007 grams.
A set of animals was used to determine the optimal concentration of HNE for the study. […] The amount of HNE was reduced to 40 micrograms to maintain a maximal detrimental but survivable effect. The animals exposed to 40 micrograms of HNE were able to survive long enough to perform the complete study. All animals remaining in the complete study were exposed to 40 micrograms of HNE.
(§1) Target 2 (the Zeneca molecule) was given in a 70-fold molar excess relative to HNE. In the kinetic studies, Target 2 has 2 nM affinity. […] Accordingly, the Target C was given to the animals in a 100 fold molar excess relative to HNE in these studies.
Bronchio-Alveolar lavage (BAL) is performed by 1) anesthetizing the animals; 2) performing a tracheotomy on the animals and cutting open the chest and spreading the ribs to enable full lung expansion; 3) pressurizing 1 ml of PBS buffer solution into the lungs through the tracheotomy catheter; 4) sucking the solution out of the lungs; 5) centrifuging the recovered solution to separate the red blood cell fraction from the liquid fraction; and 6) weighing the red blood cell fraction.

HNE = target: T1, HNE (Homo sapiens, UniProt P08246); test: kinetic studies of HNE inhibition; format: biochemical
T1 sequence (P08246 30-267): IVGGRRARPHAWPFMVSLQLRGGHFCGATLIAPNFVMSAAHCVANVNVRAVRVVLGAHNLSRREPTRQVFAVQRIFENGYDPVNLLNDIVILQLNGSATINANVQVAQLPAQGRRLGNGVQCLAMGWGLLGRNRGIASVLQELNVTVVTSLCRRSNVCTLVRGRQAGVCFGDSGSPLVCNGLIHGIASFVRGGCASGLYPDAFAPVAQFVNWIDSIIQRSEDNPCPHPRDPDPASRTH
Description: as §1

[2] = HNE mixed with compound, four weeks, blind scoring
[3] = given with 40 micrograms HNE by intratracheal instillation, 2 hours, weight of BAL red blood cell fraction

Target C (FPIPLPYCWLCRALIKRIQAMIPKG)
MLI (mean linear intercept between adjacent alveolar walls) ([1]; HNE (40 micrograms) mixed with compound, intratracheal, four weeks, saline only 44.40, HNE only 51.45): 45.82 μm | effect on HNE induced emphysema by MLI ([1]; HNE + compound, compared to HNE only and saline only): strongly inhibited HNE induced emphysema | effect on HNE induced emphysema, lung histology sections [1, 2]: strongly inhibited HNE induced emphysema | lung histology sections compared with animals receiving saline only [1, 2]: could not be distinguished in blind scoring | Lung Blood Cell Level, Group mean (mice exposed to HNE; [3]): 0.007 g | Lung Blood Cell Level, Mouse group 1 (mice exposed to HNE; [3]): 0 g | Lung Blood Cell Level, Mouse group 2 (mice exposed to HNE; [3]): 0.007 g | Lung Blood Cell Level, Mouse group 3 (mice exposed to HNE; [3]): 0.014 g | average blood level in the lungs (mice exposed to HNE; given with the HNE, 2 hours, HNE alone 0.053 grams): 0.007 grams | reduction of the average blood level in the lungs (mice exposed to HNE; given with the HNE, versus HNE alone): 87% | loss of potency as compared to Target 2 (HNE): loses approximately two orders of magnitude of potency | Ki (HNE; read-out: affinity for HNE): ~200 nM
